Laboratory results from the supplement of paper PMC4862054.

Assays:
Assay in all cases: normalised response (% of control), CellTox Green; higher = less cell death (100 = DMSO, 0 = benzethonium chloride kill control)
Conditions in all cases: incubation time: 72 h
MDA-MB-231 = system: MDA-MB-231
How it was run: (§1)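 Breast cancer cell lines were exposed for 72 h in 384-well plates to compound at 5 concentrations, 10-fold apart, covering a 10,000-fold range fixed for each compound. Plates were read for CellTox Green fluorescence and CellTiter-Glo luminescence and normalised to 0.1 % DMSO (100) and a positive kill control (0). Each value is the normalised signal at one concentration of the series.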

BT-474 = system: BT-474
How it was run: as §1

HCC1937 = system: HCC1937
How it was run: as §1

HCC1143 = system: HCC1143
How it was run: as §1

MDA-MB-453 = system: MDA-MB-453
How it was run: as §1

CAL-120 = system: CAL-120
How it was run: as §1

HDQ-P1 = system: HDQ-P1
How it was run: as §1

DU-4475 = system: DU-4475
How it was run: as §1

MDA-MB-436 = system: MDA-MB-436
How it was run: as §1

CAL-148 = system: CAL-148
How it was run: as §1

CAL-51 = system: CAL-51
How it was run: as §1

BT-549 = system: BT-549
How it was run: as §1

MFM-223 = system: MFM-223
How it was run: as §1

CAL-85-1 = system: CAL-85-1
How it was run: as §1

MCF-10A = system: MCF-10A
How it was run: as §1

MDA-MB-468 = system: MDA-MB-468
How it was run: as §1

HCC1599 = system: HCC1599
How it was run: as §1

Hs578T = system: Hs578T
How it was run: as §1

Compound	normalised response (MDA-MB-231)	normalised response (BT-474)	normalised response (HCC1937)	normalised response (HCC1143)	normalised response (MDA-MB-453)	normalised response (CAL-120)	normalised response (HDQ-P1)	normalised response (DU-4475)	normalised response (MDA-MB-436)	normalised response (CAL-148)	normalised response (CAL-51)	normalised response (BT-549)	normalised response (MFM-223)	normalised response (CAL-85-1)	normalised response (MCF-10A)	normalised response (MDA-MB-468)	normalised response (HCC1599)	normalised response (Hs578T)
C=C(c1ccc(C(=O)O)cc1)c1cc2c(cc1C)C(C)(C)CCC2(C)C [Bexarotene] (1000 nM)	114%	99.1%	94.8%	83.9%	84.4%	99.6%	95.3%	99.3%	98.4%	75.7%	110%	98.8%	103%	95.7%	85%	111%	107%	
CC1(C)NC(=O)N(c2ccc([N+](=O)[O-])c(C(F)(F)F)c2)C1=O [Nilutamide] (10000 nM)	105%	98.8%	92.1%		97.3%	101%	98.1%	104%	102%	101%	102%	107%	96.2%	83.5%	79.5%	115%	102%	102%
N[C@@H](CSC(c1ccccc1)(c1ccccc1)c1ccccc1)C(=O)O [S-trityl-L-cysteine] (40000 nM)	122%	103%		132%	113%	105%	115%	103%	107%	92.2%	104%	121%	91%	98.6%	112%	124%	114%	126%
CNCc1ccc(-c2[nH]c3cc(F)cc4c3c2CCNC4=O)cc1 [Rucaparib] (10000 nM)	98.5%	96.9%	84.9%	74.6%	101%	98.4%	105%	97.5%	75.7%	88.9%	94.4%	112%	97.1%	129%	83.3%	160%	93.7%	
Cc1ccc(C(=O)N(CCCN)[C@@H](c2oc3cc(Cl)ccc3c(=O)c2Cc2ccccc2)C(C)C)cc1 (100 nM)	87.5%	102%	84.6%		93.5%	98.8%		95.1%	105%	106%	74.4%	91.1%	90.5%	99.9%	80%	59.9%	99.7%	
CNCc1ccc(-c2[nH]c3cc(F)cc4c3c2CCNC4=O)cc1 [Rucaparib] (1000 nM)	100%	95.8%	76%	104%	103%	97.2%	71.8%	95.3%	60.3%	100%	93.3%	115%	84.5%	71.2%	84.3%		96.6%	110%
C#Cc1cccc(Nc2ncnc3cc(OCCOC)c(OCCOC)cc23)c1 [Erlotinib] (1000 nM)	101%	98.3%	121%	112%	108%	103%	100%	103%	101%	69.6%	78.1%	96.5%	86.7%	70.4%	69.5%		103%	99.5%
C#Cc1cccc(Nc2ncnc3cc(OCCOC)c(OCCOC)cc23)c1 [Erlotinib] (10000 nM)		83.9%	81.4%	16.9%	95.1%	100%	79.7%	101%	102%	85.1%	86%	95.8%	69.3%	46%	104%	97.7%	104%	64.7%
O=C1CCC(N2C(=O)c3ccccc3C2=O)C(=O)N1 (stereo not drawn) [Thalidomide] (1000 nM)	63.5%	97.5%	99%	99%	103%	101%	111%	98.5%	109%	97.4%	111%		100%	108%		130%	98.2%	97.6%
CN(C)/N=N/c1[nH]cnc1C(N)=O [Dacarbazine] (10000 nM)	101%	95%		116%	101%	105%	111%	98.9%	91.3%		111%	94.1%	96.7%	81.7%	103%	104%	104%	126%
Cc1ccc(C(=O)Nc2ccc(CN3CCN(C)CC3)c(C(F)(F)F)c2)cc1C#Cc1cnc2cccnn12 [Ponatinib] (100 nM)	97.6%	97.9%	92.2%	107%	105%	99.1%	95.6%	99.3%	102%	104%	99%	92%	98.7%	105%	72.1%	96.7%	97.4%	
COc1cc2nccc(Oc3ccc(NC(=O)C4(C(=O)Nc5ccc(F)cc5)CC4)cc3)c2cc1OC [Cabozantinib] (1000 nM)	97.1%	98.4%	102%	108%	101%	98.6%	65.3%	96.9%	87.1%	96.9%	82.7%	105%	93.8%	104%		158%	94.5%	70.1%
O=C1CCC(N2C(=O)c3ccccc3C2=O)C(=O)N1 (stereo not drawn) [Thalidomide] (10000 nM)	115%	103%	97.8%	105%	93.2%	104%		99.1%		60.5%	100%	99.3%	101%	119%	99%	186%	99.9%	63.3%
C=C(c1ccc(C(=O)O)cc1)c1cc2c(cc1C)C(C)(C)CCC2(C)C [Bexarotene] (10000 nM)	108%	97.8%	105%	114%	98.4%	100%	110%	101%	78.6%	97.9%	96.8%	89.8%	74.1%	79.7%	93.8%	121%	108%	
Cn1c(CCCC(=O)O)nc2cc(N(CCCl)CCCl)ccc21 [Bendamustine] (1000 nM)	117%	103%	119%	84.8%	104%	99.9%	95.9%	103%	81.8%	101%	116%	119%	105%	101%	67.1%	121%	101%	
N[C@@H](CSC(c1ccccc1)(c1ccccc1)c1ccccc1)C(=O)O [S-trityl-L-cysteine] (4000 nM)		101%	85.1%	87%	101%	97.9%	62.2%	101%	105%	98.3%	105%	104%		100%	116%	136%	95.5%	106%
C[C@]12CC[C@@H]3c4ccc(O)cc4C[C@@H](CCCCCCCCC[S+]([O-])CCCC(F)(F)C(F)(F)F)[C@H]3[C@@H]1CC[C@@H]2O (stereo partly drawn) [Fulvestrant] (1000 nM)	115%	102%	98.5%	113%	97.9%	97.9%	111%	99.7%	93%	100%	117%	91.9%	97.8%	74.9%	101%		98%	121%
N.N.[Cl][Pt][Cl] [Cisplatin] (1000 nM)	94.5%	103%	92.5%	108%	95.4%	106%	109%	97.5%	98.4%	109%	100%	89.3%	93.2%	97.9%	123%		92%	144%
COc1cc([C@@H]2c3cc4c(cc3[C@@H](O[C@@H]3O[C@@H]5CO[C@@H](C)O[C@H]5[C@H](O)[C@H]3O)[C@H]3COC(=O)[C@H]23)OCO4)cc(OC)c1O [Etoposide] (1000 nM)		101%		120%	94.8%	95.7%	95.6%	93.7%	13.2%	30.9%	50.3%	109%	103%	99.6%	110%	102%	97%	
O=P1(NCCCl)OCCCN1CCCl (stereo not drawn) [Ifosfamide] (10000 nM)	89%	70.9%		99.9%	104%	100%	101%	94.9%	82.4%	95.8%	93.9%	77.5%	95.7%	133%		193%	93.6%	54.2%
CN(C)/N=N/c1[nH]cnc1C(N)=O [Dacarbazine] (1000 nM)	116%	102%	116%	86.7%	103%	100%	88.7%	101%	77%	101%	105%	114%		103%	111%		101%	
Cc1ccc(-n2nc(C(C)(C)C)cc2NC(=O)Nc2ccc(OCCN3CCOCC3)c3ccccc23)cc1 [Doramapimod] (10000 nM)		97.5%	79.6%	75.8%	104%	93.6%	96.2%	100%	55.2%	98.2%	86.3%	110%	96.5%	126%	101%	132%	99%	71.6%
COc1cc2nccc(Oc3ccc(NC(=O)C4(C(=O)Nc5ccc(F)cc5)CC4)cc3)c2cc1OC [Cabozantinib] (100 nM)	103%	100%	120%		99.4%	98.2%	91.5%	97.5%		102%	100%	101%	96.3%	106%	88.3%	136%	92.3%	102%
Cn1c(CCCC(=O)O)nc2cc(N(CCCl)CCCl)ccc21 [Bendamustine] (10000 nM)		101%	90.7%	129%	101%	99.4%		103%	114%	92.6%	115%	118%	96.5%	84.3%	95.4%		111%	
